According to US8106007B2, “Conjugates of a polypeptide and a pentasaccharide” (N.V. Organon, priority 2005, dated 2012):
Where two headings read alike, the source gives them in different places. One block for each compound: values may come before it. Where a SMILES comes first, the peptide text is derived from it. [ ]: non-standard residue; d: D form. The star is where a group is joined. X1 = CO[C@H]1O[C@H](COS(=O)(=O)O)[C@@H](O[C@@H]2O[C@@H](C(=O)O)[C@@H](O[C@H]3O[C@H](COS(=O)(=O)O)[C@@H](O[C@@H]4O[C@H](C(=O)O)[C@@H](O[C@H]5O[C@H](COS(=O)(=O)O)[C@@H](OCCOCCOCCOCCNC(=O)COCCOCCOCCOCCSC6CC(=O)N(CCCC(=O)*)C6=O)[C@H](OC)[C@H]5OC)[C@H](OC)[C@H]4OC)[C@H](OS(=O)(=O)O)[C@H]3OS(=O)(=O)O)[C@H](OC)[C@H]2OC)[C@H](OS(=O)(=O)O)[C@H]1OS(=O)(=O)O; d(hArg(Et2)) = CCN=C(NCC)NCCCC[C@@H](N)C(=O)O; hArg(Et2) = CCN=C(NCC)NCCCC[C@H](N)C(=O)O; dPhe(4-Cl) = N[C@H](Cc1ccc(Cl)cc1)C(=O)O; d2Nal = N[C@H](Cc1ccc2ccccc2c1)C(=O)O; d3Pal = N[C@H](Cc1cccnc1)C(=O)O

Experiments:
hATIII = hATIII (Homo sapiens, UniProt P01008); experiment: Competitive hATIII binding assay using Biomolecular Interaction Analysis (BIA); conditions: for competitive binding potential to ATIII (in words): compared to parent pentasaccharide-spacer residue / parent peptide; for IC50: 15 nmol/L hATIII, compound 9 immobilised on chip, 25° C., read-out: IC50 BIA (competitive ATIII binding)
Chain of hATIII (P01008 33-464): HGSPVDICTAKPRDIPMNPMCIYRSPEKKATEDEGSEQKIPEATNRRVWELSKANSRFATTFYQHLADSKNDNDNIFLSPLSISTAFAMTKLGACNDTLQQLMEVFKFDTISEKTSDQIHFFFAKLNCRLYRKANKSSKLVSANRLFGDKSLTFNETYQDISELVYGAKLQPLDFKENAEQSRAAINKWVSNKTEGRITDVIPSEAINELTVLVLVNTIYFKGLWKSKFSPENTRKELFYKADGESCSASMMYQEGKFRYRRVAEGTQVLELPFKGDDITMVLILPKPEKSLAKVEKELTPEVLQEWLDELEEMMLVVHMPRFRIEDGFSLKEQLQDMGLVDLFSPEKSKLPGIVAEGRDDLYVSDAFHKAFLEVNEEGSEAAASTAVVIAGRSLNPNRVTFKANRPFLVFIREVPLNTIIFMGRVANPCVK
Description: The sensorgrams and report points were analysed with blanc flow cell subtraction using BIAevaluation 3.2. IC50 values were calculated using graphpad Prism 3.0.
Principle and aim of the test: Biomolecular Interaction Analysis (BIA) studies the interaction between (bio)molecules by covalent immobilisation of one of the interactants to a sensor chip surface, and injection of the other interactant in the continuous buffer flow over this surface. Binding is registered as a change in refractive index on this surface and is proportional to the molecular weight (Mw) of the interactants.
To study the interaction between hATIII and pentasaccharide conjugates, compound 9 is covalently coupled to the sensor chip surface. Binding of hATIII to the pentasaccharide generates a strong signal as a resultant of the difference in Mw between the bound (small) pentasaccharide ligand and the (large) hATIII analyte. Preincubated samples containing a constant concentration of hATIII and variable concentrations of free pentasaccharide or conjugate were injected over the surface. Binding of pentasaccharide or conjugate to ATIII during preincubation will result in a reduction of ATIII binding to the immobilised pentasaccharide. This competitive binding assay allows determination of IC50 values for each pentasaccharide conjugate.
Experimental procedure: Compound 9 is covalently coupled to a CM5 sensor chip by amine coupling at pH 8.5. […] The unreacted hydroxysuccinimide groups are reacted with ethanolamine for 7 min. The surface is regenerated by three short injections of 5 μL 5 mol/L NaCl, at a flow rate of 25 μL/min.
A concentration series of hATIII was tested to estimate a sensitive concentration for inhibition (at 80% of maximum binding). At a flow rate of 20 μL/min three minute injections were carried out at both blanc and immobilised surface in series at 25° C. A report point is generated at 170 s. The surface is regenerated by a 12 s injection of 5 mol/L NaCl.
The hATIII injection or report point without pentasaccharide conjugate is set at 100% binding. The relative % binding of the pentasaccharides and the conjugates compared to maximum binding was used to generate a sigmoidal curve (with variable slope) by plotting Log [concentration] vs. % binding from which the IC50 values were derived.

[1] = Pharmacokinetics in rat after 125I labeling, not corrected for dehalogenation
Description: (§1) After labeling, the conjugate was purified by gel filtration on Sephadex G25 and anion exchanger HiTrap Q10. […] In order to prevent accumulation of ^125I^− in the thyroid, rats were orally treated with 10 mg/kg potassium iodide prior to administration of compound.
The correct determination of the fate of ^125I-labeled conjugates might be affected aversely by metabolic intracellular endogenous dehalogenation to give free ^125I^− in circulation.

[2] = in rat, i.v., Chan et al. 1991; cited from earlier work
[3] = species not given; cited from earlier work
glucose levels = experiment: Glucose suppression test in vivo in rats; set-up: species or system rat; conditions: i.v. doses of 24 and 48 nmol/kg (FIG. 21, 22)
Description: The animals were fasted overnight (16 hours) prior to the experiment. In the morning blood was sampled from all the rats by cutting a little piece of the tail, after which the blood was dropped on a test strip and the glucose levels were measured with an ACCU-Check Sensor blood glucose monitor (Roche Diagnostics). […] At various time intervals blood samples were taken by removing the crusted blood, after which the glucose content was determined immediately as described.

[4] = rat, in vivo, iv
Description: as §1

[5] = rat, in vivo, iv, 3.5 nmol/kg
Description: The human Enzyme-Linked Immuno-Sorbent Assay (ELISA) has been developed to measure human insulin in human and rat plasma or buffer system. In this way the ELISA could be used to determine the insulin concentration in plasma samples derived from pharmacokinetic experiments.
The assay is based on the immunochemical “sandwich” principle using two monoclonal antibodies, i.e. a solid phase bound, capture antibody and a detection antibody which is labeled with horseradish peroxidase (HRP).
The plate was washed to remove unbound enzyme-labeled antibody and subsequently the 3,3′,5,5′-tetramethylbenzidine/H2O2 substrate solution was added. The reaction was stopped with 0.5 M sulphuric acid and the microtiter plate was read spectrophotometrically at 450 nm. The intensity of colour is directly proportional to the concentration of insulin. Then for each plasma sample the mean concentration (mol/L) of insulin was determined.
The rats were anaesthetized by inhalation of a mixture of O2/N2O/isoflurane, after which the right jugular vein was cannulated. […] Blood was centrifuged after which the plasma was siphoned off and stored at −20° C. until use. The concentration of the tested compounds in the plasma samples were determined using the human ELISA against a calibration curve which was made of the stock solution of the tested compound itself. The concentration in the samples was expressed in nmol/L and the kinetic parameters were calculated with the noncompartment model of WinNonlin.

rat ATIII = target: T1, rat ATIII (Rattus norvegicus, UniProt A0A8I5Y9G3); experiment: Determination of (poly)peptide-pentasaccharide-ATIII complex in rat plasma (sandwich ELISA); type: binding; conditions: plasma 1 min after i.v. 3.5 nmol/kg in rat
T1 construct: from tissue; host or cells: plasma of male Wistar rats
T1 sequence (A0A8I5Y9G3 35-465): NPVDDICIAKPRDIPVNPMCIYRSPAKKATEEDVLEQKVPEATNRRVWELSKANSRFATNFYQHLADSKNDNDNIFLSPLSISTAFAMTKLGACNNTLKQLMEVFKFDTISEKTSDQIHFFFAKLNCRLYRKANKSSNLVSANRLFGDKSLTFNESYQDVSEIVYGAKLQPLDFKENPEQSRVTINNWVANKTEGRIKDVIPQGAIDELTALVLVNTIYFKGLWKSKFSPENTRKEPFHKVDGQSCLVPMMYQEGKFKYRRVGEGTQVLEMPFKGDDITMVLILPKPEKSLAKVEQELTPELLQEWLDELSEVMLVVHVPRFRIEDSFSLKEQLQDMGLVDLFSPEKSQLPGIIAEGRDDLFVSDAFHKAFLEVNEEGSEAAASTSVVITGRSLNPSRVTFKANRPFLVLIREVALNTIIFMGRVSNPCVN

[6] = Table 6, rat, i.v., 125I label, not corrected for dehalogenation, n = 3

Compound: COC1OC(COS(=O)(=O)O)C(OC2OC(C(=O)O)C(OC3OC(COS(=O)(=O)O)C(OC4OC(C(=O)O)C(OC5OC(COS(=O)(=O)O)C(OCCOCCOCCOCCN)C(OC)C5OC)C(OC)C4OC)C(OS(=O)(=O)O)C3OS(=O)(=O)O)C(OC)C2OC)C(OS(=O)(=O)O)C1OS(=O)(=O)O (stereo not drawn) [Compound 9]
IC50 (hATIII): 5.5 nM

Compound: CC[C@H](C)[C@H](NC(=O)[C@H](CCC(N)=O)NC(=O)[C@H](Cc1c[nH]cn1)NC(=O)[C@H](C)NC(=O)CCCN1C(=O)CC(SCCOCCOCCOCCOCC(=O)NCCOCCOCCOCCO[C@H]2[C@H](OC)[C@@H](OC)[C@@H](O[C@H]3[C@H](OC)[C@@H](OC)[C@H](O[C@H]4[C@H](OS(=O)(=O)O)[C@@H](OS(=O)(=O)O)[C@@H](O[C@H]5[C@H](OC)[C@@H](OC)[C@H](O[C@H]6[C@H](OS(=O)(=O)O)[C@@H](OS(=O)(=O)O)[C@@H](OC)O[C@@H]6COS(=O)(=O)O)O[C@H]5C(=O)O)O[C@@H]4COS(=O)(=O)O)O[C@@H]3C(=O)O)O[C@@H]2COS(=O)(=O)O)C1=O)C(=O)N[C@@H](Cc1ccc(O)cc1)C(=O)N[C@@H](CCC(N)=O)C(=O)N[C@@H](Cc1ccccc1)C(=O)N[C@H](C(=O)N[C@@H](CC(=O)O)C(=O)N[C@@H](CCCCN)C(=O)N[C@@H](CC(=O)O)C(=O)N[C@@H](CCCCN)C(=O)N[C@@H](CC(=O)O)C(=O)N[C@@H](CC(N)=O)C(=O)N[C@H](C(=O)N[C@@H](C)C(=O)N1CCC[C@H]1C(=O)N[C@@H](CCCNC(=N)N)C(=O)N[C@@H](CO)C(=O)N[C@@H](CCCCN)C(=O)N[C@H](C(=O)N[C@@H](CO)C(=O)N1CCC[C@H]1C(=O)N[C@@H](CCC(N)=O)C(=O)NCC(=O)N[C@@H](Cc1ccc(O)cc1)C(N)=O)[C@@H](C)CC)C(C)C)[C@@H](C)O (stereo partly drawn) [Compound 39] (X1-AHQIYQFTDKDKDNVAPRSKISPQGY-NH2)
Cl [1, 6]: 5.0 ± 0.1 mL/h | Vss [1, 6]: 80 ± 3.3 ml/rat

Compound: [125IH] [^125I^−]
elimination half-life ([1]; rats, control, data not shown): 192 min

Compound: CCN=C(NCC)NCCCC[C@H](NC(=O)[C@H](CC(C)C)NC(=O)[C@@H](CCCCNC(=NCC)NCC)NC(=O)[C@H](Cc1ccc(O)cc1)NC(=O)[C@H](CO)NC(=O)[C@@H](Cc1cccnc1)NC(=O)[C@@H](Cc1ccc(Cl)cc1)NC(=O)[C@@H](Cc1ccc2ccccc2c1)NC(C)=O)C(=O)N1CCC[C@H]1C(=O)N[C@H](C)C(N)=O [ganirelix] (Ac-[d2Nal][dPhe(4-Cl)][d3Pal]SY[d(hArg(Et2))]L[hArg(Et2)]P[dA]-NH2)
competitive binding potential to ATIII (in words) (hATIII): no competitive binding to ATIII | T½ [2]: 84 min | t ½ [3]: 720 min

Compound: C[C@@H](O)[C@@H]1NC(=O)[C@H](CCCCN)NC(=O)[C@@H](Cc2c[nH]c3ccccc23)NC(=O)[C@H](Cc2ccccc2)NC(=O)[C@@H](NC(=O)[C@H](N)Cc2ccccc2)CSSC[C@@H](C(=O)N[C@H](CO)[C@@H](C)O)NC1=O [octreotide]
t ½ [3]: 102 min

Compound: calcitonin
t ½ [3]: 20 min

Compound: insulin detemir
blood glucose lowering activity (comparative example) (glucose levels): less pronounced and less prolonged activity

Further lines, with some results ahead:

Cl ([1]; rat, in vivo, iv): 112 ± 9 mL/h | Vss ([1]; rat, in vivo, iv): 556 ± 48 ml/rat
Compound: CC[C@H](C)[C@H](NC(=O)[C@H](CCC(N)=O)NC(=O)[C@H](Cc1c[nH]cn1)NC(=O)[C@H](C)N)C(=O)N[C@@H](Cc1ccc(O)cc1)C(=O)N[C@@H](CCC(N)=O)C(=O)N[C@@H](Cc1ccccc1)C(=O)N[C@H](C(=O)N[C@@H](CC(=O)O)C(=O)N[C@@H](CCCCN)C(=O)N[C@@H](CC(=O)O)C(=O)N[C@@H](CCCCN)C(=O)N[C@@H](CC(=O)O)C(=O)N[C@@H](CC(N)=O)C(=O)N[C@H](C(=O)N[C@@H](C)C(=O)N1CCC[C@H]1C(=O)N[C@@H](CCCNC(=N)N)C(=O)N[C@@H](CO)C(=O)N[C@@H](CCCCN)C(=O)N[C@H](C(=O)N[C@@H](CO)C(=O)N1CCC[C@H]1C(=O)N[C@@H](CCC(N)=O)C(=O)NCC(=O)N[C@@H](Cc1ccc(O)cc1)C(N)=O)[C@@H](C)CC)C(C)C)[C@@H](C)O [ADM(27-52)] (H-AHQIYQFTDKDKDNVAPRSKISPQGY-NH2; N-terminus and C-terminus assumed)
competitive binding potential to ATIII (in words) (hATIII): no significant competitive binding to ATIII

IC50 (hATIII): 96 nM
Compound: COC[C@H]1O[C@H](OC)[C@H](OS(=O)(=O)O)[C@@H](OC)[C@@H]1O[C@@H]1O[C@@H](C(=O)O)[C@@H](O[C@H]2O[C@H](COS(=O)(=O)O)[C@@H](O[C@@H]3O[C@H](C(=O)O)[C@@H](O[C@H]4O[C@H](COS(=O)(=O)O)[C@@H](OCCOCCOCCOCCN)[C@H](OC)[C@H]4OC)[C@H](OC)[C@H]3OC)[C@H](OS(=O)(=O)O)[C@H]2OS(=O)(=O)O)[C@H](OC)[C@H]1OC [Compound 7]

IC50 (hATIII): 58 nM
Compound: COC1OC(COS(=O)(=O)O)C(OC2OC(C(=O)O)C(OC3OC(COS(=O)(=O)O)C(OC4OC(C(=O)O)C(OC5OC(COS(=O)(=O)O)C(OCCOCCOCCOCCN)C(OC)C5OC)C(OC)C4OC)C(OS(=O)(=O)O)C3OS(=O)(=O)O)C(OC)C2OC)C(OC)C1OS(=O)(=O)O (stereo not drawn) [Compound 8]

binding to rat ATIII in circulation (complex detected) (rat ATIII): cannot form a complex with ATIII
Compound: recH insulin: recombinant human insulin (batch SIHR017, from Diosynth)
AUCinf [4]: 481 h · cpm/0.1 mL | Cl [4]: 69.3 mL/min/kg | MRT [4]: 30 min | Vss [4]: 2.225 L/kg | Cl [5]: 13.3 ± 2 mL/min/kg | MRT [5]: 0.84 ± 6 min | T½ eli [5]: 1.98 ± 0.06 min | Vss [5]: 0.012 ± 0.002 L/kg
